Measurements as given in paper PMC10062711 (Journal of Molecular Structure, 2023).
≈ marks a conversion by molar mass, not a printed value.

Assays:
A. flavus = test: In vitro antifungal MIC; type: cell-based; settings: for MIC A .flavus: 72-96 h incubation; for MIC: Aspergillus flavus, read-out: MIC A .flavus
E. coli (MTCC-443) = test: In vitro antibacterial MIC, microbroth dilution; type: cell-based; settings: for MIC E. coli: 24 h incubation; for MIC: Escherichia coli, MTCC443, 24 h, read-out: MIC E. coli
S. aureus (MTCC-96) = test: In vitro antibacterial MIC, microbroth dilution; type: cell-based; settings: for MIC S. aureus: 24 h incubation
B. subtilis (MTCC-121) = test: In vitro antibacterial MIC, microbroth dilution; type: cell-based; settings: for MIC B. subtilius: 24 h incubation; for potency against B. substilius compared to the standard drug: versus Streptomycin
P. aeruginosa (MTCC-741) = test: In vitro antibacterial MIC, microbroth dilution; type: cell-based; settings: for MIC P. aeruginosa: 24 h incubation; for MIC: Pseudomonas aeruginosa, MTCC741, 24 h, read-out: MIC P. aeruginosa
[1] = test system: Mycobacterium tuberculosis H37Rv; test: Antitubercular activity, Resazurin Assay method; type: cell-based; settings: for % Inhibition: primary screening (6.5 mg/mL); for antitubercular activity compared to PZA: M. tuberculosis H37Rv, versus PZA
A. niger = test: In vitro antifungal MIC; type: cell-based; settings: for MIC A. niger: 72-96 h incubation; for MIC: Aspergillus niger, read-out: MIC A. niger
K. pneumonia (MTCC2272) = test: In vitro antibacterial MIC, microbroth dilution; type: cell-based, K. pneumoniae; settings: for MIC K. pneumoniae: 24 h incubation; for inhibitory activity against K. pneumoniae compared to standard drug: versus Streptomycin
[2] = test system: peripheral blood mononuclear cells (PBMC); settings: MTT assay
C. albicans = test: In vitro antifungal MIC; type: cell-based; settings: for MIC C. albicans: 72-96 h incubation; for MIC: Candida albicans, read-out: MIC C. albicans
Rhizopus sp = test: In vitro antifungal MIC; type: cell-based; settings: for MIC Rhizopus sp: 72-96 h incubation; for MIC: Rhizopus, read-out: MIC Rhizopus sp
[3] = Mycobacterium tuberculosis, H37RV

Row | Compound | MIC A .flavus (A. flavus) [µg/mL] | MIC E. coli (E. coli (MTCC-443)) [µg/mL] | MIC S. aureus (S. aureus (MTCC-96)) [µg/mL] | MIC B. subtilius (B. subtilis (MTCC-121)) [µg/mL] | MIC P. aeruginosa (P. aeruginosa (MTCC-741)) [µg/mL] | % Inhibition ([1]; M. tb H37Rv) [%] | MIC A. niger (A. niger) [µg/mL] | MIC K. pneumoniae (K. pneumonia (MTCC2272)) [µg/mL] | MIC C. albicans (C. albicans) [µg/mL] | MIC Rhizopus sp (Rhizopus sp) [µg/mL] | MIC [1, 3] [µg/mL] | inhibition at 6500 µg/mL [1, 3] [%] | also measured
1 | 3,5-Dimethyl-2,6-bis(p-chlorophenyl)−4H-pyran-4-one O-((1-phenyl-1H-1,2,3-triazol-4-yl) methyl)oxime [Compound 27] | 25 | 6.3 | 25 | 50 | 25 | 75 | 25 | 50 | – | – | – | – | inhibitory activity against E. coli compared to Streptomycin (E. coli (MTCC-443); versus Streptomycin): two-fold; MIC ([1]; M. tb H37Rv, neutral pH): 6.25 µg/mL
2 | 3,5-Dimethyl-2,6-bis(p-methoxyphenyl)pyran-4-one N-isonicotinoylhydrazone [Compound 12] | 12.5 | 50 | 50 | 25 | 100 | 70 | 25 | 25 | 25 | 50 | – | – | IC50 (cytotoxicity) [2]: 609.1 µg/mL; antitubercular activity compared to PZA [1]: twice
3 | 3,5-Dimethyl-2,6-bis(p-methoxyphenyl)−4H-pyran-4-one O-((1-phenyl-1H-1,2,3-triazol-4-yl)methyl)oxime [Compound 30] | – | – | – | 25 | – | 80 | 12.5 | 25 | 25 | – | – | – | –
4 | 3,5-Dimethyl-2,6-bis(p-methoxyphenyl)−4H-pyran-4-one O-((3-(4-chlorophenyl) isoxazol-5-yl)methyl)oxime [Compound 36] | 6.3 | 25 | 50 | 50 | 100 | 75 | 6.3 | 25 | 25 | 50 | – | – | MIC ([1]; M. tb H37Rv, neutral pH): 6.25 µg/mL
5 | 3,5-Dimethyl-2,6-bis(p-methylphenyl)pyran-4-one N-isonicotinoylhydrazone [Compound 11] | 25 | 12.5 | 12.5 | 25 | 25 | 76 | 50 | 25 | 50 | 50 | – | – | IC50 (cytotoxicity) [2]: 587.6 µg/mL; antitubercular activity compared to PZA [1]: twice
6 | 3,5-Dimethyl-2,6-bis(p-methylphenyl)−4H-pyran-4-one O-((3-(4-chlorophenyl) isoxazol-5-yl)methyl) oxime [Compound 35] | 25 | 25 | 12.5 | 12.5 | 25 | 82 | 25 | 25 | 25 | 50 | – | – | potency against B. substilius compared to the standard drug (B. subtilis (MTCC-121)): two-fold; MIC ([1]; M. tb H37Rv, neutral pH): 6.25 µg/mL
7 | 3-Ethyl-2,6-diphenylpyran-4-one N-isonicotinoylhydrazone [Compound 8] | 25 | 6.3 | 50 | 6.3 | 25 | 70 | 25 | 12.5 | 25 | 12.5 | – | – | IC50 (cytotoxicity) [2]: 486.2 µg/mL; antitubercular activity compared to PZA [1]: twice
8 | 3-Ethyl-2,6-diphenyltetrahydro-4H-pyran-4-one O-ethynyl oxime [Compound 20] | 100 | 12.5 | 12.5 | 25 | 25 | – | 25 | 25 | 100 | 50 | – | – | activity against S. aureus compared to the standard drug (S. aureus (MTCC-96); versus Streptomycin): fourfold
9 | 3-Methyl-2,6-diphenylpyran-4-one N-isonicotinoylhydrazone [Compound 7] | 12.5 | 6.3 | 25 | 12.5 | 12.5 | 73 | 50 | 12.5 | 25 | 25 | – | – | MIC ([1]; M. tb H37Rv, neutral pH): 6.25 µg/mL
10 | 3-Methyl-2,6-diphenyltetrahydro-4H-pyran-4-one O-ethynyl oxime [Compound 19] | 100 | 50 | 50 | 25 | 100 | – | 50 | 25 | 100 | 100 | – | – | –
11 | CC1C(=NOCc2cn(-c3ccccc3)nn2)CC(c2ccccc2)OC1c1ccccc1 (stereo not shown) [Compound 25, 3-Methyl-2,6-diphenyltetrahydro-4H-pyran-4-one O-((1-phenyl-1H-1,2,3-triazol-4-yl)methyl)oxime] | – | – | – | – | – | – | – | – | – | – | 6.25 (≈ 14.3 µM) | 75 | MIC (A. flavus): 12.5 µg/mL (≈ 28.5 µM); MIC (E. coli (MTCC-443)): 25 µg/mL (≈ 57 µM); MIC (P. aeruginosa (MTCC-741)): 12.5 µg/mL (≈ 28.5 µM); MIC (A. niger): 50 µg/mL (≈ 114 µM); inhibitory activity against K. pneumoniae compared to standard drug (K. pneumonia (MTCC2272)): four-fold; MIC (C. albicans): 25 µg/mL (≈ 57 µM); MIC (Rhizopus sp): 25 µg/mL (≈ 57 µM)
12 | CCC1C(=NOCc2cn(-c3ccccc3)nn2)CC(c2ccccc2)OC1c1ccccc1 (stereo not shown) [Compound 26, 3-Ethyl-2,6-diphenyltetrahydro-4H-pyran-4-one O-((1-phenyl-1H-1,2,3-triazol-4-yl)methyl) oxime] | – | – | – | – | – | – | – | – | – | – | 6.25 (≈ 13.8 µM) | 70 | MIC (A. flavus): 6.3 µg/mL (≈ 13.9 µM); MIC (E. coli (MTCC-443)): 12.5 µg/mL (≈ 27.6 µM); MIC (P. aeruginosa (MTCC-741)): 25 µg/mL (≈ 55.2 µM); MIC (A. niger): 25 µg/mL (≈ 55.2 µM); inhibitory activity against K. pneumoniae compared to standard drug (K. pneumonia (MTCC2272)): four-fold; MIC (C. albicans): 6.3 µg/mL (≈ 13.9 µM); MIC (Rhizopus sp): 12.5 µg/mL (≈ 27.6 µM)
13 | CC1C(=NOCc2cc(-c3ccc(Cl)cc3)no2)CC(c2ccccc2)OC1c1ccccc1 (stereo not shown) [Compound 31, 3-Methyl-2,6-diphenyltetrahydro-4H-pyran-4-one-O-((3-(4-chlorophenyl)isoxazol-5-yl)methyl) oxime] | – | – | – | 12.5 (≈ 26.4 µM) | – | – | – | – | – | – | 6.25 (≈ 13.2 µM) | 90 | MIC (A. flavus): 12.5 µg/mL (≈ 26.4 µM); MIC (E. coli (MTCC-443)): 12.5 µg/mL (≈ 26.4 µM); potency against B. substilius compared to the standard drug (B. subtilis (MTCC-121)): two-fold; MIC (P. aeruginosa (MTCC-741)): 12.5 µg/mL (≈ 26.4 µM); MIC (A. niger): 50 µg/mL (≈ 106 µM); MIC (C. albicans): 25 µg/mL (≈ 52.9 µM); MIC (Rhizopus sp): 25 µg/mL (≈ 52.9 µM)
14 | CCC1C(=NOCc2cc(-c3ccc(Cl)cc3)no2)CC(c2ccccc2)OC1c1ccccc1 (stereo not shown) [Compound 32, 3-Ethyl-2,6-diphenyltetrahydro-4H-pyran-4-one O-((3-(4-chlorophenyl)isoxazol-5-yl)methyl) oxime] | – | – | – | 12.5 (≈ 25.7 µM) | – | – | – | – | – | – | 6.25 (≈ 12.8 µM) | 91 | MIC (A. flavus): 6.3 µg/mL (≈ 12.9 µM); MIC (E. coli (MTCC-443)): 25 µg/mL (≈ 51.3 µM); potency against B. substilius compared to the standard drug (B. subtilis (MTCC-121)): two-fold; MIC (P. aeruginosa (MTCC-741)): 25 µg/mL (≈ 51.3 µM); MIC (A. niger): 25 µg/mL (≈ 51.3 µM); MIC (C. albicans): 25 µg/mL (≈ 51.3 µM); MIC (Rhizopus sp): 12.5 µg/mL (≈ 25.7 µM)
15 | CC[C@@H](CO)NCCN[C@@H](CC)CO [EMB, Ethambutol, reference compound] | – | – | – | – | – | – | – | – | – | – | 1.56 (≈ 7.64 µM) | > 95 | –
16 | NNC(=O)c1ccncc1 [INH, isoniazid, reference compound] | – | – | – | – | – | – | – | – | – | – | 0.1 (≈ 0.729 µM) | > 95 | –
17 | NC(=O)c1cnccn1 [PZA, pyrazinamide, reference compound] | – | – | – | – | – | – | – | – | – | – | 6.25 (≈ 50.8 µM) | > 90 | –
